Marks after values point to notes of the source that are not given here.
B1: sDl1: soluble non-transmembrane form of the Notch ligand Delta1 (protein)
chain: QVWSSGVFELKLQEFVNKKGLLGNRNCCRGGAGPPPCACRTFFRVCLKHYQASVSPEPPCTYGSAVTPVLGVDSFSLPDGGGADSAFSNPIRFPFGFTWPGTFSLIIEALHTDSPDDLATENPERLISRLATQRHLTVGEEWSQDLHSSGRTDLKYSYRFVCDEHYYGEGCSVFCRPRDDAFGHFTCGERGEKVCNPGWKGPYCTEPICLPGCDEQHGFCDKPGECKCRVGWQGRYCDECIRYPGCLHGTCQQPWQCNCQEGWGGLFCNQDLNYCTHHKPCKNGATCTNTGQGSYTCSCRPGYTGATCELGIDECDPSPCKNGGSCTDLENSYSCTCPPGFYGKICELSAMTCADGPCFNGGRCSDSPDGGYSCRCPVGYSGFNCEKKIDYCSSSPCSNGAKCVDLGDAYLCRCQAGFSGRHCDDNVDDCASSPCANGGTCRDGVNDFSCTCPPGYTGRNCSAPVSRCEHAPCHNGATCHERGHRYVCECARGYGGPNCQFLLPELPPGPAVVDLTEKLEGQGGPFPW
modifications: left off: small tags and cut ends
notes: soluble non-transmembrane form of the Notch ligand Delta1

Tests used:
[1] = system: NCSC populations; test: Clonogenic differentiation and serial subcloning assays of NCSC clones (secondary NCSC); format: cell-based, murine; design: G / Sm / G + Sm: unit not given here; conditions: for NCSC clones that did not express either gliogenic or neurogenic differentiation markers: after 7 days of expansion; for clones that were trifatent (neurons, glial, and smooth muscle progeny): secondary clones established from treated founder clones
Protocol: Clonogenic assays were performed as described (Stemple et al., 1992, Cell 71:973-985). Briefly, populations of murine NCSC were plated at a clonal density and maintained for a maximum of 14 days in Morrison media supplemented with 15% chick embryo extract (Morrison et al., 1999, Cell 96:737-749). The resulting clones were fixed in an acetic acid:ethanol solution (2:1) and stained with antibodies against peripherin (Chemicon) to detect neurons, smooth muscle actin (Sigma) to detect myofibroblasts, and GFAP (Chemicon) to detect Schwann cells. Clones were scored based on the appearance of just one phenotypic representative. The number and percentage of clones containing neurons only (N), Schwann cells only (S), myofibroblasts only (M), N+S, N+M, N+S+M, and S+M were scored at day 14 unless otherwise stated. The production of each representative phenotype in each individual clone was also scored to complement the clonal population assay.
In order to generate secondary NCSC populations, founder clones originating from differentiating E10 clones at distinct time points during NCSC differentiation (days 2 through 18) were treated with trypsin and replated at a cell clonal density using methods previously described (Kubu et al., 2000, Genomics 70:150-152). The resulting cells were subjected to immunofluorescence microscopy using both p75^+ and P0^− antibodies (Kubu et al., 2000, Genomics 70:150-152) and the p75^+/P0^− cells identified as putative stem cells. All non-p75^+/P0^− cells were removed from the dish with a tungsten needle. The cultures of secondary NCSC clones were subjected to the clonogenic assay as described above.
Specifically, clonogenic differentiation and serial subcloning assays were performed using NCSC clones incubated with either thrombin, sDl1, sJ1 or TRAP.
Briefly, presented are the number of colonies with the resulting differentiation profiles (mean±SD of three experiments resulting from individual NCSC isolations).
A genetic approach was used to determine whether thrombin, TRAP, or sJ1 were able to promote cell cycle progression in the NCSC population. Thus, a dnFGFR1 construct was expressed in the NSC cells and the clonogenic differentiation assay conducted in the presence of either sJ1, thrombin or no additional supplement.

[2] = system: clonal cortical neurospheres; test: Cortical neurosphere model, secondary sphere formation; format: cell-based, murine; conditions: for F/SP × 10^2 / Cells/Founder (F) / Secondary Spheres (SP): day 10; for Cells/Founder (F): mean±SD; for Secondary Spheres (SP): from dissociation of founder spheres, mean±SD of three experiments; for secondary spheres per primary sphere: primary spheres grown 2 weeks with the factor, secondary spheres in standard media
Description: The E14 prefrontal ventricular zone was dissected and plated at a clonal neurosphere-forming density in the presence of either sJ1, sDl1, thrombin, TRAP or no supplementation. After 2 weeks, the clones were dissociated to single cells and secondary spheres were generated using standard media with no supplementation (Reynolds et al., 1992, J. Neurosci. 12:4565-4574).
Secondary spheres (SP) are formed from the dissociation of founder (F) spheres. The data presented are the number of colonies (mean±SD of three experiments). (*=p≦0.05).

[3] = system: FGF1.A transcript in murine NCSC; test: RT-PCR analysis of FGF1.A mRNA expression in NCSC; format: cell-based; conditions: 48 hours; 7.5 nM sJ1, 5.0 nM sDl1, 10 μg/ml α-thrombin or 5 μg/ml TRAP
[4] = system: neurosphere cultures and p75+/P0- neural crest stem cells; test: RT-PCR of self-renewal transcripts Nestin, Nucleostemin and Bmi1; format: cell-based, murine; conditions: for relative expression of Nestin, Nucleostemin and Bmi1 transcripts: primary and secondary neurosphere cultures
Protocol: Clonal NCSC neurospheres were generated and allowed to expand for 10 days in either 7.5 nM sJ1, 5 nM sD1, 5 μg/ml α-thrombin, and no additive (control) (FIG. 13A) as described elsewhere herein. Clonal NCSC neurospheres were generated in a feeder-layer coculture system using a monolayer of stable full-length (FL) Jagged1 NIH 3T3 cell transfectants or insert-less NIH 3T3 cell transfectants and treated with either 5 μg/ml thrombin or without further supplementation (control) (FIG. 13B). The results are presented as representative photomicrographs of the spheres obtained under each condition after 14 days of treatment. […] Clonal neurospheres were generated in the presence of either 5 μg/ml α-thrombin, 7.5 nM sJ1, 5 nM sDl1 or no supplement (control) and expanded for 14 days. RT-PCR was used to determine the steady-state mRNA level for three markers of neural stem cells (Nestin, Nucleostemin and Bmi1). An increase in the expression of all three transcripts compared to control was observed. […] Approximately 5×10^2 NCSC were plated in Morrison media supplemented with either 7.5 nM sJ1, 5 μg/ml α-thrombin, 5 nM sD1, 2 ng/ml BMP2 or no additive (control) for 48 hours. The results are presented as the percent of control (mean±standard deviation of three RT-PCR experiments) performed in triplicate. No change in the steady-state level mRNA levels of the three markers relative to actin was observed.
RT-PCR was performed with 1 μg RNA using the Platinum Taq One Step RT-PCR kit (Invitrogen) as follows: RT (30 minutes at 50° C.), PCR (40 cycles at 94° C. for 15 seconds, at 58° C. for 30 seconds and 72° C. for 1 minute). All amplified cDNA was visualized with ethidium bromide followed by 1.5% agarose gel electrophoresis. RT-PCR analysis of fgf and gapdh was performed as previously described elsewhere herein. […] Each reaction product was measured as a ratio relative to the amplification product of actin and samples were run in triplicate. […]

[5] = colonies from secondary NCSC, mean±SD
[6] = dnFGFR1-transduced NCSC, trifatent
[7] = glial-only colonies from secondary NCSC, mean±SD
[8] = secondary stem cells from NCSC founders after ten days of expansion, mean±SD
[9] = smooth muscle-only colonies from secondary NCSC, mean±SD
[10] = trifatent colonies from secondary NCSC, mean±SD

Molecule | NCSC clones that did not express either gliogenic or neurogenic differentiation markers [1] | G + Sm [1, 5] | N + G [1, 5] | N + Sm [1, 5] | G ([1]; dnFGFR1-transduced NCSC) | G + Sm ([1]; dnFGFR1-transduced NCSC) | N + G ([1]; dnFGFR1-transduced NCSC) | N + Sm ([1]; dnFGFR1-transduced NCSC) | Secondary NSSC/Founder ([1]; dnFGFR1-transduced NCSC) | Sm ([1]; dnFGFR1-transduced NCSC) | G [1, 7] | clones that were trifatent (neurons, glial, and smooth muscle progeny) [1] | Secondary NSSC/Founder [1, 8] | Sm [1, 9] | N + G + Sm [1, 10] | F/SP × 10^2 [2] | Cells/Founder (F) [2] | Secondary Spheres (SP) [2] | secondary spheres per primary sphere [2] | expression of the FGF1.A transcript [3] | further results
sJ1: Soluble Jagged1, amino acid residues from about 1 to 1067 (SEQ ID NO:3) of full-length Jagged1 | 84±7% | 3.4 ± 2.8 | 7.0 ± 5.6 | 1.5 ± 1.7 | 9.3 ± 2.7 | 10.3 ± 6.3 | 7.2 ± 4.5 | 6.2 ± 7.0 | 13.5 ± 4.7 | 16.4 ± 8.5 | 7.8 ± 1.4 | 74.1±9% | 26.2 ± 6 | 6.2 ± 1.0 | 74.1 ± 9.1 | 10%* | 527 ± 170* | 55 ± 14 | 64±11 | induced | N + G + Sm [1, 6]: 48.0 ± 11.8; relative expression of Nestin, Nucleostemin and Bmi1 transcripts [4]: elevated
Thrombin | 75±11% | 2.0 ± 2.1 | 3.93 ± 3.8 | 4.5 ± 2.1 | 1.7 ± 3.1 | 6.9 ± 8.3 | 9.8 ± 3.2 | 5.5 ± 1.5 | 13.5 ± 2.9 | 24.13 ± 1.4 | 0 ± 0 | 86.8±2.1% | 36.8 ± 6.3 | 2.6 ± 1.01 | 86.8 ± 2.1 | 13%* | 488 ± 166* | 64 ± 11 | 55±14 | induced | N ([1]; dnFGFR1-transduced NCSC): 5.9 ± 1.7; N + G + Sm [1, 6]: 46.0 ± 13.6; relative expression of Nestin, Nucleostemin and Bmi1 transcripts [4]: elevated
B1 | 0±0% | 3.4 ± 2.8 | 0 | 0 | – | – | – | – | – | – | 72 ± 6.4 | 0.5% | 0.6 ± 1.0 | 20.5 ± 6.5 | 0.5 ± 0.7 | 2.0% | 150 ± 69* | 3 ± 3 | 3±3 | did not influence | levels of Nestin, Nucleostemin and Bmi1 transcripts ([4]; p75+/P0- neural crest stem cells, 24 and 48 hours): sharply decreased

From patent publication US7501281B2, “Compositions, methods and kits related to thrombin, Notch signaling and stamatogenesis and growth of stem cells” (Maine Medical Center Research Institute, priority 2003, dated 2009)
